# Laboratory results: patent US20180265934A1, “COINCIDENCE REPORTER GENE SYSTEM” (The United States of America, as represented by the …, priority 2013, published 2018)
# Read-outs that look alike come from different tables or passages of the source.
# Assays:
# [1] = test system: PARK2 (Parkin) gene expression; assay: Compound library screening, Parkin coincidence reporter cell line (FLuc-P2A-NLuc in PARK2 locus, BE(2)-M17 cells), 1536-well; type: cell-based, human; settings: 24 h, titration
# Experimental: Construction of the Parkin coincidence reporter cell line by TALEN-mediated genome editing was carried out as follows. To generate a double-strand cleavage of the genomic DNA in the first codon of the PARK2 gene, constructs encoding transcription activator-like effector nuclease (TALEN) pairs (Right and Left) encoding components of the heterodimeric FokI nuclease were generated as described by Huang et al., Nature Biotechnology, 29: 699-700 (2011). The TALEN pair was designed to generate a double-strand cleavage at or near the first translation codon (ATG) within the Parkin gene. These constructs were transfected with Lipofectamine LTX (Life Technologies) into BE(2)-M17 cells (ATCC) […] along with a GFP-expressing marker plasmid and the coincidence reporter donor plasmid. After 48 hours of incubation in a tissue culture incubator, GFP-positive cells were sorted by FACS analysis and single clones were isolated and expanded. Once sufficient cell populations for each clone were achieved, analysis of correct genomic insertion of the Fluc-P2A-NLuc-PEST-PolyA coincidence reporter cassette that replaced the “ATGATAG” (SEQ ID NO: 362) sequence at the […] of the PARK2 gene exon 1 was ascertained by PCR and DNA sequencing of genomic DNA preparations (QIAGEN).
# Compound library screening in 1536-well plates was carried out as follows. The Parkin coincidence reporter cell line was seeded at a density of 2000 cell/well into white, solid bottom, tissue-culture treated (Greiner Bio-One), 1536-well microplates in a total of 5 μL/well of culture medium. After a 16 hour incubation in a tissue-culture incubator, a compound pin tool (Wako) was used to transfer 20 nL of compound dissolved in DMSO for library plates to the assay plates. Compounds were present in either a 6 or 12-point titration in the library plates. DMSO vehicle, CCCP, and PTC-124 were also added to the designated control well. After a 24 hour incubation in the tissue culture incubator, the volume in each well of both plates was reduced to 2 μL with a microplate aspiration system (BioTek) and then 2 μL of Firefly Luciferase assay reagent (Promega) was added to every well each plate and luminescent signal from each well of each plate was measured on a VIEWLUX plate reader (PerkinElmer). Following the first read, 2 μL of NanoLuc assay reagent (Promega) including a proprietary firefly luciferase inhibitor (to quench the firefly reaction) was added to every well of each plate. After a second 15 minute incubation at room temperature, the NanoLuc signal from each well of each plate was measured on the VIEWLUX. Raw luminescent signal is expressed as a % of the positive control (10 uM CCCP for NanoLuc and 500 nM PTC-124 for FLuc).
# [2] = test system: cAMP-response element (CRE), adenylyl cyclase signaling; assay: Compound test, 24-point titration, 4×CRE-driven FLuc-P2A-RLuc (pCI-6.24), 384-well; type: cell-based; settings: PTC124 on FLuc, BTS on RLuc; relative to non-treated control
# Experimental: (§1) For the compound test, forskolin, PTC124 and BTS were prepared in a 24-point intraplate titration format and pre-diluted in the cell culture medium. Purified pCI-6.24 construct was transfected into GRIPTITE 293 MSR cells (Life Technologies). Sixteen hours post transfection, cells were trypsinized and then dispensed at 2,000 cells/15 μL/well in 384-well tissue culture treated white/solid bottom plates (Greiner Bio-One North America). Five μL of pre-diluted compound was transferred into assay plates, resulting in a final concentration ranging from 0.027 nM to 227 μM (forskolin) and 0.011 nM to 91 μM (PTC124 and BTS). The assay plates were incubated at 37° C. for 10 hours. FLuc and RLuc activities were then detected using DUAL-GLO reagent (Promega) and a VIEWLUX plate reader (PerkinElmer). Concentration-response curves and concentrations of half-maximal activity (EC50) for each compound were generated by using PRISM 4 software (GraphPad Software, Inc., La Jolla, Calif.).
# Parkin expression = settings: previously demonstrated, Bouman et al. 2011; cited from earlier work
# [3] = test system: cAMP-response element (CRE) / CREB pathway; assay: LOPAC1280 qHTS, 4×CRE-driven FLuc-P2A-RLuc coincidence reporter (pCI-6.24) in GripTite 293 MSR cells; type: cell-based; settings: for EC50: GripTite 293 MSR
# Experimental: This protocol measures bioluminescence derived from both FLuc and RLuc expression from a single assay. […] Sixteen hours after transfection, cells were trypsinized and then dispensed at 2,000 cells/20 μL/well in 384-well tissue culture treated white/solid bottom plates (Greiner Bio-One North America, Monroe, N.C.). The assay plates were incubated at 37° C. for 10 hours before adding the DUAL-GLO detection reagent (Promega). Luminescence from luciferase activity was detected by using a VIEWLUX plate reader (PerkinElmer, Waltham, Mass.).
# Sixteen hours after transfection, cells were trypsinized and then dispensed at 500 cells/4 μL/well in 1,536-well tissue culture treated white/solid bottom plates (Greiner Bio-One North America) using a multidrop combi dispenser (Thermo Fisher Scientific). […] The assay plates were incubated at 37° C. for 10 hours before adding the DUAL-GLO detection reagent (3.5 μL+3.5 μL for each well) (Promega). Luminescence from luciferase activity was detected by using VIEWLUX (PerkinElmer). Each experimental plate contained forskolin as a positive control and DMSO as a negative control. Percentage activity was defined as the percentage signal relative to forskolin (100%) and DMSO (0%).
# SV40 promoter = assay: Compound test, SV40-driven FLuc-P2A-RLuc construct (pCI-6.20); type: cell-based; settings: pCI-6.20 construct
# Experimental: as §1
# This experiment was repeated with cells transfected with the pCl-6.20 construct, which encoded FLuc-P2A-RLuc under the control of the SV40 […].
# p53 RE = assay: FLuc2P-NLucP reporter assay, p53 RE-driven construct (pCI-4.38) in HEK293 cells; type: cell-based; settings: 10 μM etoposide, 24 h
# Experimental: (§2) The FLuc2P-NLucP reporter assay and compound test was carried out as follows. This protocol measures bioluminescence derived from both FLuc2P and NLucP. The purified DNA construct pCI-4.38 was transfected into HEK293 cells and the cells were cultured as described in Example 1. Sixteen hours after transfection, the cells were trypsinized and then dispensed at 2,000 cells/20 μL/well into two 384-well tissue culture treated white/solid bottom plates (Greiner Bio-One North America). After adding Etoposide (Sigma) or control DMSO, the assay plates were incubated at 37° C. for 24 hours before adding the ONE-GLO or NANO-GLO detection reagents (Promega). Luminescence from luciferase activity was detected by using a VIEWLUX plate reader (PerkinElmer).
# ARE = assay: FLuc2P-NLucP reporter assay, ARE-driven construct (pCI-4.37) in HEK293 cells; type: cell-based; settings: 100 μM tBHQ, 24 h
# Experimental: as §2, with “A” for “The”, “pCI-4.37” for “pCI-4.38”, “cells.” for “cells and the cells were cultured as described in Example 1.”, “and” for “and then”, “tert-Butylhydroquinone (tBHQ)” for “Etoposide”
compound,measurement,setting,value
O=C(O)c1cccc(-c2noc(-c3ccccc3F)n2)c1 [PTC124],coincident reporter response (FLuc and NLuc),[1],do not elicit a coincident reporter response
same,signal obtained through reporter interference,[1],FLuc signal is obtained through reporter interference
same,effect on reporter activity by reporter stabilization,[2],increase the activity of the reporters
N#CC(C#N)=NNc1cccc(Cl)c1 [carbonyl cyanide m-chlorophenyl hydrazone],induction of Parkin expression,Parkin expression,induce Parkin expression
"C=C[C@@]1(C)CC(=O)[C@]2(O)[C@@]3(C)[C@@H](O)CCC(C)(C)[C@@H]3[C@H](O)[C@H](OC(C)=O)[C@@]2(C)O1 [cpd 19, Forkskolin]",Ratio F/R,"[3]; FLuc EC50 / RLuc EC50, Table 5",0.90
same,EC50,"[3]; 10 h, Table 5, coincident activators, FLuc readout, 10 h, ~4 nM to 57 μM, read-out: FLuc EC50",1320 nM
same,EC50,"[3]; 10 h, Table 5, coincident activators, RLuc readout, 10 h, ~4 nM to 57 μM, read-out: RLuc EC50",1470 nM
same,EC50,"[3]; FLuc readout, 1536 interplate format, read-out: Intraplate Forskolin Control Mean",860 nM
same,EC50,"[3]; RLuc readout, 1536 interplate format, read-out: Intraplate Forskolin Control Mean",880 nM
same,activity where reporter expression was driven by the SV40 promoter,SV40 promoter,inactive
"COc1cc([C@@H]2c3cc4c(cc3[C@@H](O[C@@H]3O[C@@H]5CO[C@@H](C)O[C@H]5[C@H](O)[C@H]3O)[C@H]3COC(=O)[C@H]23)OCO4)cc(OC)c1O [etoposide, Etoposide]",reporter output vs DMSO,p53 RE,greater RLU values
"CC(C)(C)c1cc(O)ccc1O [tBHQ, tert-Butylhydroquinone]",reporter output vs DMSO,ARE,greater RLU values
Tunicamycin,induction of Parkin expression,Parkin expression,induce Parkin expression
